Test results from patent US20030017976A1, “Therapeutic properties of liposome-encapsulated immunomodulators” (priority 1998, published 2003).

Legend:
[1] = test system: IL-15; assay: RT-PCR of IL-15 in PEM and IEC6 cells; assay type: cell-based
Source text: To determine whether macrophages or epithelial cells respond to JBT 3002 by upregulating IL-1 5, the RT-PCR technique was used and the results are shown in FIG. 23.

[2] = test system: IL-15; assay: Ileum and liver lesion histology, BrdUrd and IL-15 expression after JBT 3002 and CPT-11; assay type: in vivo, mouse; details: mouse, in vivo
Protocol: BALB/c mice were injected with CT-26 colon cancer cells into the spleen. […] Four days after the last injection of CPT-11, some mice were killed and their ileum was harvested and prepared for histology, immunohistochemistry, and molecular biology analyses.

[3] = test system: peritoneal exudate macrophages (PEM); assay: Nitrite (NO) production by mouse peritoneal exudate macrophages; assay type: cell-based; details: available to 1×10^5 PEM
Protocol: Peritoneal exudate macrophages (PEM) were collected by peritoneal lavage from mice given an intraperitoneal injection of 2.0 ml of thioglycollate broth (Baltimore Biological Laboratory, Cockeysville, Md.) 4 days before harvest (Dong Z, O'Brian C A, et al. J Leukoc Biol (1993) 53:53-60; Xie K, Huang S, et al. Cancer Res (1995) 55:3123-31). The PEM were washed in Ca^+2- an Mg^2+-free HBSS and resuspended in serum-free medium: 1×10^5 cells were plated into each 38-mm^2 well of 96-2311 culture plates (Falcon Plastics, Oxnard, Calif.). After a 90-min incubation, the nonadherent cells were removed by washing with medium. More than 98% of the adherent cell populations were macrophages according to morphology and phagocytic criteria (Saiki I, et al. J Immunol (1985) 135:684-8). […] After treatment, the cultures were washed and macrophage-mediated cytotoxicity against different tumor targets was determined. […]
Nitrite accumulation in the culture supernatant was measured in a colorimetric assay as described previously (Ding A E, et al. J Immunol (1988) 141:2407-12). […] The mixtures were incubated 10 min with shaking, and A540 was measured with the use of a microplate reader (Model 3550; Bio-Rad Corp., San Francisco, Calif.). The concentration of nitrite was determined by comparing it with a standard solution of sodium nitrite in medium.

N-hexadecanol-S-[2(R)-3-diodecanoyloxypropyl]-L-cysteinyl-L-alanyl-D-isoglutaminyl-glycyl-taurine sodium salt [JBT3002]
IL-15 expression in response to JBT 3002 (RT-PCR) [1]: Peritoneal exudate macrophages (PEM), but not intestinal cells (IEC6), upregulate IL-15 expression | expression of IL-15 in the ileum [2]: restores or augments this expression | minimal concentration of JBT3002 required to generate significant levels of NO (20 μM) [3]: 0.12 to 0.15 ng
